Legend:
tubulin = assay: Tubulin polymerization kinetics (absorbance at 340 nm); format: biochemical
Excerpt: FIG. 9 depicts a graph illustrating tubulin polymerization of cells treated with PTA-1 in accordance with an illustrative embodiment. Graph 900 illustrates the kinetic curves of four different treatments for tubulin polymerization.
In this illustrative example, absorbance is directly correlated with tubulin polymerization. Therefore, if polymerization happens, there is an increase in the absorbance at 340 nm. […] In graph 900 tubulin polymerization can be clearly observed from the increasing absorbance after treatment with PTX. In this example, tubulin polymerization for cells treated with PTX drops immediately after 10 minutes.

[1] = test system: caspase-3 in MDA-MB-231 cells; assay: Caspase-3 activation, NucView 488 substrate, flow cytometry; format: cell-based
Excerpt: FIG. 4 depicts a plot illustrating PTA-1 induced caspase-3 activation in accordance with an illustrative embodiment. In FIG. 4, the induction of apoptosis from PTA-1 is corroborated by detecting the activation of the enzyme caspase-3. The fluorogenic reagent NucView 488 caspase-3 substrate was used to detect the activation of caspase 3 via flow cytometry. […] The average of 3 replicates is represented by each bar.
Caspase enzymes are activated during apoptosis and eventually result in DNA cleavage. In this example, caspase-3 is activated after exposure of the MDA-MB-231 cells at a concentration of 10 μM and 20 μM of PTA-1. […] The data shown in FIG. 4 corroborate the induction of apoptosis as the mechanism of cell death.

[2] = Differential nuclear staining cytotoxicity assay, MDA-MB-231; format: cell-based; conditions: human; CC50 in MCF10A divided by CC50 in MDA-MB-231; read-out: Selective cytotoxicity index (SCI)
Excerpt: (§1) In this illustrative example, PTA-1 can be identified through compound screening by performing differential nuclear staining assay on acute lymphoblastic leukemia CEM T-cell line. Differential nuclear staining assay measures cell viability using Hoechst 33342 fluorescent stain and propidium iodide dyes that stain all nuclei and dead cell nuclei.
(§2) With reference now to FIG. 2, a table for evaluating cytotoxicity of PTA-1 on different cell lines is depicted in accordance with an illustrative embodiment. In FIG. 2, PTA-1 with chemical structure 100 shown in FIG. 1 is tested to determine cytotoxic activities of PTA-1 on different cell lines.
(§3) In table 200, column 202 indicates the type of cells that are used to test cytotoxic activities of PTA-1, column 204 indicates the cell line used to test cytotoxic activities of PTA-1, column 206 indicates the CC50 values for different cell lines, and column 208 indicates the length of time that different cell lines are exposed to PTA-1. […]
(§4) In this illustrative example, the selective cytotoxicity index value is used to determine if a compound has activity preferentially toward cancer cells. […] The selective cytotoxicity index (SCI) value is calculated by dividing the CC50 of the compound in non-cancerous cells (HS27 human fibroblasts or MCF-10A breast epithelial cells) by the CC50 in cancer cells. […]

MDA-MB-231 cell line = assay: as above; format: cell-based; conditions: MDA-MB-231, among all cancerous cell lines
Excerpt: as §1, §2, §3, §4

MDA-MB-231 cells = assay: Annexin V assay by flow cytometry (phosphatidylserine externalization); format: cell-based
Excerpt: Phosphatidylserine externalization is a cellular process that involves the translocation of phosphatidylserine from the inner leaflet of the cell's plasma membrane to the outer leaflet. The externalization of phosphatidylserine is recognized by other cells as a signal for engulfment and removal without causing inflammation or damage.
The plot illustrated in FIG. 3 was generated by Annexin V assay analyzed by flow cytometry showing the externalization of the phospholipid phosphatidylserine (PS). Treatment of MDA-MB-231 cells with PTA-1 at concentrations of 10 μM and 20 μM for 24 hours induces apoptosis as shown by PS externalization. Each bar represents the average of at least three technical replicates.

[3] = test system: A549 cell line for lung cancer; assay: Differential nuclear staining cytotoxicity assay, A549; format: cell-based; conditions: A549, among all cancerous cell lines
Excerpt: as §1, §2, §3, §4

[4] = as above; format: cell-based; conditions: human; CC50 in non-cancerous cells divided by CC50 in A549; read-out: Selective cytotoxicity index (SCI)
Excerpt: as §1, §2, §3, §4

[5] = Differential nuclear staining cytotoxicity assay, NALM6; format: cell-based; conditions: human; CC50 in non-cancerous cells divided by CC50 in NALM6; read-out: Selective cytotoxicity index (SCI)
Excerpt: as §1, §2, §3, §4

Jurkat cell line = assay: Differential nuclear staining cytotoxicity assay, Jurkat; format: cell-based; conditions: Homo sapiens, read-out: CC50 (50% cytotoxic concentration)
Excerpt: In this illustrative example, PTA-1 can be identified through compound screening by performing differential nuclear staining assay on acute lymphoblastic leukemia CEM T-cell line. Differential nuclear staining assay measures cell viability using Hoechst 33342 fluorescent stain and propidium iodide dyes that stain all nuclei and dead cell nuclei. With reference now to FIG. 2, a table for evaluating cytotoxicity of PTA-1 on different cell lines is depicted in accordance with an illustrative embodiment. In FIG. 2, PTA-1 with chemical structure 100 shown in FIG. 1 is tested to determine cytotoxic activities of PTA-1 on different cell lines. In table 200, column 202 indicates the type of cells that are used to test cytotoxic activities of PTA-1, column 204 indicates the cell line used to test cytotoxic activities of PTA-1, column 206 indicates the CC50 values for different cell lines, and column 208 indicates the length of time that different cell lines are exposed to PTA-1. […] In this illustrative example, a lower CC50 value for a cell line indicates a higher level of PTA-1 cytotoxicity, meaning that PTA-1 is more toxic to the cell line.

MDA-MB-231 cell cycle = assay: Cell cycle analysis; format: cell-based
Excerpt: FIGS. 5A-5D show the percentages of cells that are affected in different phase after treatment of PTA-1.
FIGS. 5A-5D illustrate how PTA-1 alters the progression of the MDA-MB-231 cell cycle. Etoposide is used as a positive control. FIG. 5A illustrates PTA-1 induced DNA fragmentation as denoted in the sub G0/G1 phase.

[6] = test system: HS27 human fibroblasts (non-cancerous); assay: Differential nuclear staining cytotoxicity assay, HS27; format: cell-based; conditions: HS27 non-cancerous cell line vs cancerous lines
Excerpt: as §1, §2, §3, §4

[7] = test system: MCF10A cell line (non-cancerous breast epithelial cells); assay: Differential nuclear staining cytotoxicity assay, MCF10A; format: cell-based; conditions: MCF10A non-cancerous cell line vs cancerous lines
Excerpt: as §1, §2, §3, §4

[8] = test system: microtubules and microfilaments of MDA-MB-231 cells; assay: Cytoskeleton imaging by fluorescence microscopy; format: cell-based; conditions: 10 μM, 4 hours
Excerpt: FIG. 8 illustrates alterations in cytoskeletal structures of MDA-MB-231 cells in response to treatment with PTA-1 in accordance with an illustrative embodiment. To test the hypothesis that PTA-1 acts as a tubulin inhibitor, we tested if it could cause alterations in the microtubule organization of MDA-MB-231 cells.
Disruption of cellular microtubules of MDA-MB-231 cells can be assessed by imaging microtubules using fluorescence microscopy.

CC[C@]1(O)C[C@@H]2CN(CCc3c([nH]c4ccccc34)[C@@](C(=O)OC)(c3cc4c(cc3OC)N(C)[C@H]3[C@@](O)(C(=O)OC)[C@H](OC(C)=O)[C@]5(CC)C=CCN6CC[C@]43[C@@H]65)C2)C1 [Vinblastine, reference compound]
Duration of nucleation phase (absorbance starts increasing) (tubulin; absorbance at 340 nm): four
Kinetic curve of tubulin polymerization compared with DMSO (tubulin; absorbance at 340 nm): never reached the absorbance values of cells treated with DMSO

COc1ccc(-c2cnn(CC(=O)Nc3cnn(C)n3)c2)cc1C(F)(F)F [PTA-1, 2-{4-[4-methoxy-3-(trifluoromethyl)phenyl]-1H-pyrazol-1-yl}-N-(2-methyl-2H-1,2,3-triazol-4-yl)acetamide]
Caspase-3 activation ([1]; 10 μM): significantly induced the activation of Caspase 3
Caspase-3 activation ([1]; 20 μM): significantly induced the activation of Caspase 3
selectivity ratio [2]: 4.73
Sensitivity to PTA-1 (CC50 comparison) (MDA-MB-231 cell line): least sensitive
Cell population with phosphatidylserine externalization (MDA-MB-231 cells; 10 μM, 24 hours): 59.4%
Cell population with phosphatidylserine externalization (MDA-MB-231 cells; 20 μM, 24 hours): 59.7%
Sensitivity to PTA-1 (CC50 comparison) [3]: most sensitive
selectivity ratio [4]: 105
Absorbance (tubulin polymerization) (tubulin; 340 nm, after 60 minutes of treatment, DMSO 0.3702): 0.3247
Duration of nucleation phase (absorbance starts increasing) (tubulin; absorbance at 340 nm): four
Kinetic curve of tubulin polymerization compared with DMSO (tubulin; absorbance at 340 nm): never reached the absorbance values of cells treated with DMSO
Time to reach steady state of tubulin polymerization (tubulin; absorbance at 340 nm): 20 min
selectivity ratio [5]: 8.65
CC50 (Jurkat cell line): 0.32 µM
Cells in the G2/M phase (MDA-MB-231 cell cycle; 1.25 μM): 53.25%
Cells in the S phase (MDA-MB-231 cell cycle; 1.25 μM): 19.8%
DNA fragmentation (sub G0/G1 phase) vs DMSO and untreated (MDA-MB-231 cell cycle; 1.25 μM): significantly higher rates of DNA fragmentations
Cells in the G2/M phase (MDA-MB-231 cell cycle; 2.5 μM): 71.5%
Cells in the S phase (MDA-MB-231 cell cycle; 2.5 μM): 15.34%
DNA fragmentation (sub G0/G1 phase) vs DMSO and untreated (MDA-MB-231 cell cycle; 2.5 μM): significantly higher rates of DNA fragmentations
Cells in the G2/M phase (MDA-MB-231 cell cycle; 5 μM): 66.47%
Cells in the S phase (MDA-MB-231 cell cycle; 5 μM): 24.6%
DNA fragmentation (sub G0/G1 phase) vs DMSO and untreated (MDA-MB-231 cell cycle; 5 μM): significantly higher rates of DNA fragmentations
Cells in the G0/G1 phase (MDA-MB-231 cell cycle; different concentrations): did not result in a higher percentage of cells in the G0/G1 phase
Sensitivity to PTA-1 (CC50 comparison) [6]: significantly lower sensitivity
Sensitivity to PTA-1 (CC50 comparison) [7]: significantly lower sensitivity
Microfilament structure (phalloidin-Alexa-568 staining) [8]: remained unaltered
Microtubule organization (α-tubulin-Alexa-488 staining) [8]: disrupts the microtubule organization

OO [H2O2, reference compound]
Cell population with phosphatidylserine externalization (MDA-MB-231 cells; positive control): 49.9%

CC(=O)O[C@H]1C(=O)[C@@]2(C)[C@H]([C@H](OC(=O)c3ccccc3)[C@]3(O)C[C@H](OC(=O)[C@H](O)[C@@H](NC(=O)c4ccccc4)c4ccccc4)C(C)=C1C3(C)C)[C@]1(OC(C)=O)CO[C@@H]1C[C@@H]2O [paclitaxel, reference compound]
Growth phase of tubulin polymerization (tubulin; absorbance at 340 nm): started immediately
Time after which tubulin polymerization drops (tubulin; absorbance at 340 nm): 10 min

COc1cc([C@@H]2c3cc4c(cc3[C@@H](O[C@@H]3O[C@@H]5CO[C@@H](C)O[C@H]5[C@H](O)[C@H]3O)[C@H]3COC(=O)[C@H]23)OCO4)cc(OC)c1O [etoposide, reference compound]
Cells in the G2/M phase (MDA-MB-231 cell cycle; positive control): 15.4%
Cells with DNA fragmentation (sub G0/G1 phase) (MDA-MB-231 cell cycle; positive control): 28.6%
